In publication PMC7956971, “Fluorometric Liposome Screen for Inhibitors of a Physiologically Important Bacterial Ion Channel” (Frontiers in Microbiology, 2021):
Read-outs that look alike come from different tables or passages of the source.

What was measured:
KtrAB [1] = target: T1, KtrAB (Bacillus subtilis, UniProt O32081); experiment: ACMA fluorescence K+ efflux assay in proteoliposomes, 96-well, Hill fit of final fluorescence; type: biochemical
T1 construct: gene ktrB; purified complex of dimeric membrane protein KtrB and octameric cytoplasmic KtrA ring, reconstituted in liposomes; with Ktr system potassium uptake protein A
T1 sequence (O32081 whole entry): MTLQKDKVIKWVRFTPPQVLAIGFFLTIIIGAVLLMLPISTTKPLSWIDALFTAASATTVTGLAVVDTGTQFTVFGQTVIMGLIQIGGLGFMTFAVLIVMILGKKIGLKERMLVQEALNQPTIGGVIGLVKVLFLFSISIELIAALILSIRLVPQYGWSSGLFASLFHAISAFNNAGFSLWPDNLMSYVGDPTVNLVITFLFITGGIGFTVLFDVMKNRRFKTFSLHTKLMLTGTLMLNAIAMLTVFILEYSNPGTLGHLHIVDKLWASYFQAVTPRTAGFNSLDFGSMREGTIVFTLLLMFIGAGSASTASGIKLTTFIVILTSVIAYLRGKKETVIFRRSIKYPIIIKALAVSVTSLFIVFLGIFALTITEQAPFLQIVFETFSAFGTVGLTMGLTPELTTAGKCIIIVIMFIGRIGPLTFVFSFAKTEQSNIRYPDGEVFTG
T1 sequence (O32080 whole entry, further chain): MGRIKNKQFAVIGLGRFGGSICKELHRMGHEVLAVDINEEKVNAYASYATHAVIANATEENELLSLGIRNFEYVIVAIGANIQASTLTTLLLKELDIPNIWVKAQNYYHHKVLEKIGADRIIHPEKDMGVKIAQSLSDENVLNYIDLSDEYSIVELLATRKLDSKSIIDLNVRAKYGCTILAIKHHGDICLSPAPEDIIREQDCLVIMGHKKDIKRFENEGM

NaKΔN19/F92A = target: T2, NaKΔN19/F92A (Bacillus cereus, UniProt Q81HW2, F92A); details: read-out: KI; no nucleotide; pH 8.0; KI defined as constant of 50% inhibition
T2 construct: gene BC_0669
T2 sequence (Q81HW2 19-110 F92A): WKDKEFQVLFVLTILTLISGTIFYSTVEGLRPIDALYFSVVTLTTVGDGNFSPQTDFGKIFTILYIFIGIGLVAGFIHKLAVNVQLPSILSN

KtrB = target: T3, KtrB (Bacillus subtilis, UniProt O32081); experiment: ACMA fluorescence K+ efflux assay in proteoliposomes, 96-well, Hill fit of final fluorescence; type: biochemical
T3 construct: purified membrane subunit KtrB alone (no KtrA), reconstituted in liposomes; dimer
T3 sequence (O32081 whole entry): as the sequence (O32081 whole entry) above

KtrAB [2] = target: T4, KtrAB (Bacillus subtilis, UniProt O32081, R417K); experiment: ACMA fluorescence K+ efflux assay in proteoliposomes, single concentration; type: biochemical; details: ATP form; also tested in the ADP form
T4 construct: gene ktrB; purified complex of dimeric membrane protein KtrB and octameric cytoplasmic KtrA ring, reconstituted in liposomes; with Ktr system potassium uptake protein A
T4 sequence (O32080 whole entry): as the sequence (O32080 whole entry, further chain) above
T4 sequence (O32081 whole entry R417K): as the sequence (O32081 whole entry) above, with R417K counted along it

| Compound | IC50 (KtrAB [1]; read-out: KI) | other results |
| --- | --- | --- |
| CCN(CC)CCn1c(=N)n(CC(=O)C23CC4CC(CC(C4)C2)C3)c2ccccc21 [compound 21, compound #21] | 0.8 µM | – |
| Cc1cc(C)c(C)c(OCCCCN2CCCCC2)c1 [compound 25, compound #25] | 2 µM | – |
| CC1CCCC(C)N1CC(O)COc1ccc(Cl)cc1 (centres unmarked) [compound 41, compound #41] | 3 µM | – |
| COc1ccc(CN2CCN(c3cccc(C)c3C)CC2)c(OC)c1 [compound 6, compound #6] | 1 µM | IC50 (NaKΔN19/F92A): 16 µM |
| O=C(Nc1ccc(Cl)cc1)Nc1cccc(C(F)(F)F)c1 [compound 36, compound #36] | – | IC50 (KtrB; no nucleotide, KtrB alone, pH 8.0, KI defined as constant of 50% inhibition, read-out: KI): 0.5 µM; IC50 (KtrAB [1]; 0.1 mM ATP (active state), 0.5 mM MgCl2, pH 8.0, KI defined as constant of 50% inhibition, read-out: KI): 8 µM; % inhibition at 6 μM (KtrAB [2]): all tested compounds showed inhibition with both the active and inactive forms of KtrABR417K |
| CCCN1CCC(N(CCc2ccccc2)Cc2ccccc2)CC1 [compound 31, compound #31] | 1 µM | – |
| Cc1cc(C)c(OCC(O)CNC(C)(C)CC(C)(C)C)c(C)c1 (centres unmarked) [compound 1, compound #1] | 2 µM | IC50 (NaKΔN19/F92A): 14 µM |
| COc1ccc(Br)cc1CNCCc1cccc(F)c1 [compound 39, compound #39] | – | IC50 (KtrB): 3.8 µM; IC50 (KtrAB [1]): 4 µM |
| OC(CN1CCCCCC1)CN(c1ccccc1)c1ccccc1 (centres unmarked) [compound 3, compound #3] | 2 µM | – |
